# Target: CYP3A4 (Homo sapiens, UniProt P08684)
# Test: inhibition of testosterone metabolism in Caco-2/TC7 cells (HPLC)
# Sequence of CYP3A4 (P08684 2-503): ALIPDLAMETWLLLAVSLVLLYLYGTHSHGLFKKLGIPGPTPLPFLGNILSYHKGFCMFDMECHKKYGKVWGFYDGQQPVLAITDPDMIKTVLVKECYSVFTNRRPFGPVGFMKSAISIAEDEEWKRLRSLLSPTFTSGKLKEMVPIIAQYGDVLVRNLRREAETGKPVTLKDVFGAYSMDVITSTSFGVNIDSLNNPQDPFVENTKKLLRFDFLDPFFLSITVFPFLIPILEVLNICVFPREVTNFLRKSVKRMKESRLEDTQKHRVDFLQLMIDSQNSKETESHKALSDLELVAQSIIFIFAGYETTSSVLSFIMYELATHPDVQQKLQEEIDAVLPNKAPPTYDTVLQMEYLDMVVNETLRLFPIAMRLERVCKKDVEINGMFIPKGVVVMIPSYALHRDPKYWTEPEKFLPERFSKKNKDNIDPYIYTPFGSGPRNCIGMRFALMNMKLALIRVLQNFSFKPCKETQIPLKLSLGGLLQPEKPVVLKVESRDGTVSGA
structure (smiles),measurement,value
"Oc1ccc(/C=C/c2cc(O)cc(O)c2)cc1 [Resveratrol, trans-3,4′,5-trihydroxystilbene]",IC50,< 10 µM

# Reference: publication PMC4618141, “Use of In Vitro and Predictive In Silico Models to Study the Inhibition of Cytochrome P4503A by Stilbenes” (PLoS ONE, 2015)
